Test system: AIM+ and AIM− CD4+ T cells from peptide-expanded PBMCs
Experiment: TCRβ CDR3 sequencing (immunoSEQ) of sorted AIM+ and AIM− CD4+ T cells;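 also: genomic DNA from sorted cells as template, amplification bias-controlled two-step multiplex PCR, APOB6 pool at 10 µg/ml per peptide, CD40 blocking antibody added before restimulation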
Assay type: cell-based, human
Conditions: for Log10 Odds Ratio: AIM+ vs AIM−; for No. of clone-specific productive templates, AIM+ CD4+ T (Total 31354) / No. of clone-specific productive templates, AIM− CD4+ T (Total 48987) / No. of clone-specific productive templates, AIM+ CD4+ T (Total 16700) / No. of clone-specific productive templates, AIM− CD4+ T (Total 21770) / No. of clone-specific productive templates, AIM+ CD4+ T (Total 25796) / No. of clone-specific productive templates, AIM− CD4+ T (Total 25928) / No. of clone-specific productive templates, AIM+ CD4+ T (Total 21697) / No. of clone-specific productive templates, AIM− CD4+ T (Total 49956) / No. of clone-specific productive templates, AIM+ CD4+ T (Total 18591) / No. of clone-specific productive templates, AIM− CD4+ T (Total 7206) / No. of clone-specific productive templates, AIM+ CD4+ T (Total 34927) / No. of clone-specific productive templates, AIM− CD4+ T (Total 45364): PBMCs expanded 14 days and restimulated 24 h with APOB6
Method: To examine the clonotypic identities of autoreactive CD4^+ T cells, the hypervariable TCRβ DR3 region was sequenced using a DNA-based sequencing technique^42 (Adaptive Biotechnologies), which have been used to profile clonal populations of other self-antigen specific T cells^43. PBMCs from six HLA-typed donors (demographics and HLA-II alleles in Tables 5, 6) were expanded (14-days) and restimulated (24 h) with the APOB6 pool. To isolate viable responder and non-responder CD4^+ T cells from the same pool of stimulated PBMCs (schematic in FIG. 15A, gating strategy in FIG. 151B), the inventors used the AIM assay protocol (FIGS. 2A to 2D).
As a second control, unexpanded PBMCs (day 0 samples), sorted into naïve, central memory (TCM) and effector memory (TEM) CD4^+ T cells, were used (gating strategy in FIG. 15C). This allowed tracing the APOB6-specific AIM^+ T cell clones in naïve and memory T cell lineages. Genomic DNA, isolated from sorted AIM^− and AIM^+ Day 14 samples and naïve, TCM and TEM Day 0 samples from six donors, was used as the starting material for TCRVβ sequencing (schematic in FIG. 15A) using an optimized two-step, amplification bias-controlled multiplex-PCR-based approach^42,44 (immunoSEQ Human TCRB Assay, Adaptive Biotechnologies).
For isolation of APOB epitope-specific CD4^+ T cells, PBMCs were expanded with the APOB6pool (10 μg/ml per peptide). On Day 14, cultured cells were washed and re-stimulated with APOB6 (10 μg/ml) for 24 h (AIM assay protocol). 1 μg/ml of CD40 blocking antibody was added 15 min before stimulation. At the end of the stimulation period, cells were washed with FACS buffer (PBS w/o Ca/Mg, 2% FCS). Day 14 (APOB6 expanded and restimulated) and Day 0 (ex vivo samples with no in vitro stimulation) PBMC samples from six donors were resuspended in a staining master mix containing anti-human Fc-Block (Biolegend), fixable viability dye and antibodies against T cell and non-T cell (Dump) surface markers, activation markers and memory markers (antibody details in Table 4). Viability dye was used at 1:1000 dilution, antibodies were used at a final dilution of 1:100 (activation markers) and 1:200 (other extracellular markers). […] Gates were set based on unstimulated and PHA-L stimulated negative and positive controls, respectively. Antigen-specific AIM^+ and non-specific control AIM^− CD4^+ T cells from Day 14 samples and naïve (CD45RA^+CCR7^+), central memory (CD45RA^−CCR7^+, TCM) and effector memory (CD45RA^−CCR7^−, TEM) CD4^+ T cells from Day 0 PBMCs were sorted into HEPES-containing buffer (PBS with 2% FBS and 0.025 M HEPES) using BD FACSAria flow cytometry sorters. Acquired data was analyzed with FlowJo software.
Genomic DNA was extracted from sorted cells using QIAamp DNA Micro Kit (QIAGEN) and sent to Adaptive Biotechnologies for survey-level TCRβ sequencing (depth ˜60,000 reads) using their established immunoSEQ platform^7. Briefly, highly variable CDR3 regions on somatically rearranged human TCRβ chains were amplified with a two-step multiplex PCR approach using optimized set of primers that target the VDJ region spanning each unique CDR3B. A synthetic repertoire containing all possible V/J templates is used as a built-in control to quantify and correct PCR amplification biases. Processing of raw Illumina sequence reads, filtering, demultiplexing, clustering and mapping of CDR3 sequences and annotation of VDJ genes using IMGT database sequences were performed at Adaptive Biotechnologies and made available for download and analysis.

With “CASSFTYDEQFF: TCRβ CDR3 clone, TCRBV07-09+TCRBJ02-01, Donor 5” the “Log10 Odds Ratio” value (Donor 5) was 1.66, the “No. of clone-specific productive templates, AIM+ CD4+ T (Total 31354)” value (Donor 5) was 457 and the “No. of clone-specific productive templates, AIM− CD4+ T (Total 48987)” value (Donor 5) was 16.
In the case of “CASRTTTGFLSPLHF: TCRβ CDR3 clone, TCRBV27-01+TCRBJ01-06, Donor 3”, the “Log10 Odds Ratio” value (Donor 3) is reported as 1.86, the “No. of clone-specific productive templates, AIM+ CD4+ T (Total 16700)” value (Donor 3) is reported as 273 and the “No. of clone-specific productive templates, AIM− CD4+ T (Total 21770)” value (Donor 3) is reported as 5.
For “CASTATESSPLHF: TCRβ CDR3 clone, TCRBV12-03/12-04+TCRBJ01-06, Donor 5”, the “Log10 Odds Ratio” value (Donor 5) was 11.80, the “No. of clone-specific productive templates, AIM+ CD4+ T (Total 31354)” value (Donor 5) was 415 and the “No. of clone-specific productive templates, AIM− CD4+ T (Total 48987)” value (Donor 5) was 0.
With “CASRKQGLGYTEAFF: TCRβ CDR3 clone, TCRBV02-01+TCRBJ01-01, Donor 4” the “Log10 Odds Ratio” value (Donor 4) was 2.45, the “No. of clone-specific productive templates, AIM+ CD4+ T (Total 25796)” value (Donor 4) was 544 and the “No. of clone-specific productive templates, AIM− CD4+ T (Total 25928)” value (Donor 4) was 2.
“CASSFVDSPESYEQYF: TCRβ CDR3 clone, TCRBV12-X+TCRBJ02-07, Donor 1” was tested, and the “Log10 Odds Ratio” value (Donor 1) was 2.01, the “No. of clone-specific productive templates, AIM+ CD4+ T (Total 21697)” value (Donor 1) was 486 and the “No. of clone-specific productive templates, AIM− CD4+ T (Total 49956)” value (Donor 1) was 11.
“CASSIRPNDEQFF: TCRβ CDR3 clone, TCRBV09-01+TCRBJ02-01, Donor 1” was tested, and the “Log10 Odds Ratio” value (Donor 1) was 2.93, the “No. of clone-specific productive templates, AIM+ CD4+ T (Total 21697)” value (Donor 1) was 366 and the “No. of clone-specific productive templates, AIM− CD4+ T (Total 49956)” value (Donor 1) was 1.
“CSAREGALDNSPLHF: TCRβ CDR3 clone, TCRBV20-X+TCRBJ01-06, Donor 5” was tested, and the “Log10 Odds Ratio” value (Donor 5) was 2.33, the “No. of clone-specific productive templates, AIM+ CD4+ T (Total 31354)” value (Donor 5) was 537 and the “No. of clone-specific productive templates, AIM− CD4+ T (Total 48987)” value (Donor 5) was 4.
In the case of “CAWSVGGPGANSPLHF: TCRβ CDR3 clone, TCRBV30-01+TCRBJ01-06, Donor 2”, the “Log10 Odds Ratio” value (Donor 2) is reported as 1.16, the “No. of clone-specific productive templates, AIM+ CD4+ T (Total 18591)” value (Donor 2) is reported as 369 and the “No. of clone-specific productive templates, AIM− CD4+ T (Total 7206)” value (Donor 2) is reported as 10.
“CSARWYNEQFF: TCRβ CDR3 clone, TCRBV20-01+TCRBJ02-01, Donor 3” was tested, and the “Log10 Odds Ratio” value (Donor 3) was 1.82, the “No. of clone-specific productive templates, AIM+ CD4+ T (Total 16700)” value (Donor 3) was 349 and the “No. of clone-specific productive templates, AIM− CD4+ T (Total 21770)” value (Donor 3) was 7.
In the case of “CSAMSPSGTGELFF: TCRβ CDR3 clone, TCRBV20-X+TCRBJ02-02, Donor 2”, the “Log10 Odds Ratio” value (Donor 2) is reported as 12.19, the “No. of clone-specific productive templates, AIM+ CD4+ T (Total 18591)” value (Donor 2) is reported as 549 and the “No. of clone-specific productive templates, AIM− CD4+ T (Total 7206)” value (Donor 2) is reported as 0.
“CASRKTGSLYGYTF: TCRβ CDR3 clone, TCRBV27-01+TCRBJ01-02, Donor 5” was tested, and the “Log10 Odds Ratio” value (Donor 5) was 11.80, the “No. of clone-specific productive templates, AIM+ CD4+ T (Total 31354)” value (Donor 5) was 411 and the “No. of clone-specific productive templates, AIM− CD4+ T (Total 48987)” value (Donor 5) was 0.
With “CASSKVNEKLFF: TCRβ CDR3 clone, TCRBV03-01/03-02+TCRBJ01-04, Donor 2” the “Log10 Odds Ratio” value (Donor 2) was 1.19, the “No. of clone-specific productive templates, AIM+ CD4+ T (Total 18591)” value (Donor 2) was 361 and the “No. of clone-specific productive templates, AIM− CD4+ T (Total 7206)” value (Donor 2) was 9.
In the case of “CASSPRGAVNTEAFF: TCRβ CDR3 clone, TCRBV07-09+TCRBJ01-01, Donor 4”, the “Log10 Odds Ratio” value (Donor 4) is reported as 0.88, the “No. of clone-specific productive templates, AIM+ CD4+ T (Total 25796)” value (Donor 4) is reported as 950 and the “No. of clone-specific productive templates, AIM− CD4+ T (Total 25928)” value (Donor 4) is reported as 130.
With “CASSDDLAANVLTF: TCRβ CDR3 clone, TCRBV13-01+TCRBJ02-06, Donor 2” the “Log10 Odds Ratio” value (Donor 2) was 1.61, the “No. of clone-specific productive templates, AIM+ CD4+ T (Total 18591)” value (Donor 2) was 411 and the “No. of clone-specific productive templates, AIM− CD4+ T (Total 7206)” value (Donor 2) was 4.
With “CASSTTGLAAYNEQFF: TCRβ CDR3 clone, TCRBV19-01+TCRBJ02-01, Donor 1” the “Log10 Odds Ratio” value (Donor 1) was 1.97, the “No. of clone-specific productive templates, AIM+ CD4+ T (Total 21697)” value (Donor 1) was 519 and the “No. of clone-specific productive templates, AIM− CD4+ T (Total 49956)” value (Donor 1) was 13.
With “CASIRPGLNYGYTF: TCRβ CDR3 clone, TCRBV06-05+TCRBJ01-02, Donor 3” the “Log10 Odds Ratio” value (Donor 3) was 1.08, the “No. of clone-specific productive templates, AIM+ CD4+ T (Total 16700)” value (Donor 3) was 436 and the “No. of clone-specific productive templates, AIM− CD4+ T (Total 21770)” value (Donor 3) was 48.
In the case of “CASSQTGQGYNEQFF: TCRβ CDR3 clone, TCRBV23-01+TCRBJ02-01, Donor 6”, the “Log10 Odds Ratio” value (Donor 6) is reported as 1.49, the “No. of clone-specific productive templates, AIM+ CD4+ T (Total 34927)” value (Donor 6) is reported as 308 and the “No. of clone-specific productive templates, AIM− CD4+ T (Total 45364)” value (Donor 6) is reported as 13.
In the case of “CASSPRAGGAVREQYF: TCRβ CDR3 clone, TCRBV05-08+TCRBJ02-07, Donor 2”, the “Log10 Odds Ratio” value (Donor 2) is reported as 12.03, the “No. of clone-specific productive templates, AIM+ CD4+ T (Total 18591)” value (Donor 2) is reported as 375 and the “No. of clone-specific productive templates, AIM− CD4+ T (Total 7206)” value (Donor 2) is reported as 0.
In the case of “CSARVTGGGAHTGELFF: TCRβ CDR3 clone, TCRBV20-X+TCRBJ02-02, Donor 1”, the “Log10 Odds Ratio” value (Donor 1) is reported as 2.69, the “No. of clone-specific productive templates, AIM+ CD4+ T (Total 21697)” value (Donor 1) is reported as 422 and the “No. of clone-specific productive templates, AIM− CD4+ T (Total 49956)” value (Donor 1) is reported as 2.
“CASSPQPSTDTQYF: TCRβ CDR3 clone, TCRBV07-08+TCRBJ02-03, Donor 4” was tested, and the “Log10 Odds Ratio” value (Donor 4) was 1.60, the “No. of clone-specific productive templates, AIM+ CD4+ T (Total 25796)” value (Donor 4) was 431 and the “No. of clone-specific productive templates, AIM− CD4+ T (Total 25928)” value (Donor 4) was 11.
For “CASSPDFSGANVLTF: TCRβ CDR3 clone, TCRBV05-06+TCRBJ02-06, Donor 6”, the “Log10 Odds Ratio” value (Donor 6) was 2.17, the “No. of clone-specific productive templates, AIM+ CD4+ T (Total 34927)” value (Donor 6) was 339 and the “No. of clone-specific productive templates, AIM− CD4+ T (Total 45364)” value (Donor 6) was 3.
